Patent US8791132B2, “Compounds and methods for treatment of hypertension” (Medivation Technologies, Inc., priority 2011, dated 2014)

How the values were obtained:
SH-SY5Y cells [1] = experiment: Cell death (LDH release) in hydrogen peroxide-treated SH-SY5Y cells; assay type: cell-based; settings: LDH release normalized to vehicle (=100); hydrogen peroxide 300 μM, 24 h; compounds at 10 nM
Procedure: (§1) SH-SY5Y cells cultured in DMEM/F12 media supplemented with 10% FBS were seeded in 96-well microplates at 150,000 cells/cm^2. After 24 h, cells were depleted from FBS and kept in culture for 24 h before the experiment. Cells were then treated with 4-Br-A23187 (2 μM), hydrogen peroxide (300 μM) or the mitochondrial toxin rotenone (25 μM) in the presence of vehicle or Compound of the Invention for 24 h. Cell death was determined by measurements of LDH release according to the Cytotoxicity Detection KitPlus (Roche, Mannheim, Germany). Cell viability was determined by measuring the capacity of cells to metabolize MTS tetrazolium (MTS) according to the Cytotoxicity Detection KitPlus (Roche, Mannheim, Germany) and MTS reduction is assessed by the CellTiter 96® AQueous One Solution Cell Proliferation assay (Promega Corporation, Madison, Wis., USA). Compounds were screened at 10 nM, using DMSO as vehicle. Assay results for the experiments with hydrogen peroxide are presented as the LDH release (cell death) of untreated cells (control), hydrogen peroxide-treated cells (vehicle), and co-incubation of hydrogen peroxide with Compounds of the Invention treated cells normalized to the vehicle (FIG. 17A). This assay assesses the ability of the test compounds to protect against cell death that is mediated by mitochondrial dysfunction. In the assay, the calcium ionophore 4-Br-A23187 is used to challenge the cells, causing calcium levels to rise in mitochondria, which leads to depolarization and cell death. Test compounds are assessed for their ability to prevent cell death in response to challenge with 4-Br-A23187.

SH-SY5Y cells [2] = experiment: Cell viability (MTS reduction) in 4-Br-A23187-treated SH-SY5Y cells; assay type: cell-based; settings: MTS reduction capacity; 4-Br-A23187 2 μM, 24 h; compounds at 10 nM
Procedure: as §1, with “After” for “SH-SY5Y cells cultured in DMEM/F12 media supplemented with 10% FBS were seeded in 96-well microplates at 150,000 cells/cm^2. After”

[3] = tested on: conscious New Zealand White rabbits; experiment: Blood pressure in conscious rabbits; assay type: in vivo, rabbit
Procedure: Methods: Four adult New Zealand White rabbits of both sexes were chosen for these studies. […] To unveil peripheral effects of Compound 3b, two sets of acute studies were conducted in rabbits. […] A single intravenous bolus dose at 3 mg/kg was given and a time-course study was conducted in the second set of studies. Systolic, […], mean and […] blood pressures were recorded in both the studies. […] In a separate set of studies, Clonidine (positive control) was tested where all experimental procedures including dose-regimen were identical to that of the studies with […].

[4] = tested on: dexmedetomidine induced dogs; experiment: Dexmedetomidine (DEX) induced beagle dog model of hypertension; assay type: in vivo
From the text: (§2) Four adult beagle dogs of both sex and weighted around 10 kg were chosen for the acute studies after a preliminary qualitative electrocardiogram/ECG, clinical pathology and physical examination. Upon arrival at the laboratory, the dogs were weighed and acclimated for a period of one week. Lab Diet certified canine diet #5007, PMI Nutrition International Inc was made available ad libitum to all dogs except during fasting periods. The dogs were surgically implanted with a pressure transducer equipped telemetry transmitter under sodium pentobarbitone anesthesia. The transmitter assembly was secured internally, the fluid-filled catheter was placed into an appropriate artery.
(§3) In the acute studies, the test compounds 3b and 5b at different doses (dosing sequences provided in Table B7 for compound 3b and Table B8 for compound 5b) was administered by oral gavage, 30 minutes prior to intravenous dexmedetomidine (5 μg/kg) challenge. Dexmedetomidine administration was enabled by prior placement of a peripheral intravenous line. The same four dogs were received all four treatments in the order noted in the table below, with at least a 3-day washout period between treatments.
(§4) For the chronic study mode (see Table B9), the test compound 3b at 3 doses was administered by oral gavage once on day 1 and then twice/day on days 2 to 14, and finally once on day 15. The dexmedetomidine was administered on day-4 to check its effectiveness in inducing blood pressure, and once following the morning dose of compound 3b or vehicle on days 2, 7 and 14. Blood pressure and heart rate data were collected 1 h prior & 4 h post-morning dose on days 1, 2, 7, 14 and 15 to allow the appropriate data comparisons. Blood aliquots were saved at 4 h post-morning dose for exposure determination.
In both acute and chronic studies, dogs were weighed before dosing. Cardiovascular evaluations at each dose of test compound were collected with animals gently restrained in a sling. […] The dogs were monitored continuously for 3-4 hours subsequent to test compound administration and summarized in 5-minute bins. […]

healthy dogs = experiment: Blood pressure in healthy beagle dogs (telemetry); assay type: in vivo, dog
From the text: as §2, §3
In another acute study with compound 41a, the test agent was administered a dose of 6 mg/kg by oral gavage to 4 healthy dogs; and the blood pressure monitored for a period of 4 hours.
as §4
In both acute and chronic studies, dogs were weighed before dosing. Cardiovascular evaluations at each dose of test compound were collected with animals gently restrained in a sling. Dogs were placed in the sling at least 1 hour prior to dose administration, and after at least 30 minutes of stable baseline data collection. The dogs were monitored continuously for 3-4 hours subsequent to test compound administration and summarized in 5-minute bins. The systolic blood pressure was collected.

[5] = dexmedetomidine (5 μg/kg i.v.) induced dogs, acute studies, oral gavage 30 min before challenge

SMILES	LDH release (cell death), relative to vehicle (SH-SY5Y cells [1])	Relative cell viability protection (SH-SY5Y cells [2])	systolic blood pressure [4, 5]	systolic blood pressure (healthy dogs; acute studies, oral gavage)	other results
Cc1ccc2c(c1)c1c(n2CC(O)c2ccncc2)CCN(C)C1 (single isomer, unassigned) [3b]	86.70	0.3673	dose-dependently reduced systolic blood pressure	dose-dependently reduced systolic blood pressure	dose that produced 80% of the maximum drop in blood pressure ([3]; i.v. cumulative dose-response study): 3 mg/kg; heart rate ([3]; i.v. cumulative dose-response study (FIG. 26, fourth panel)): tachycardia; maximum arterial blood pressure drop ([3]; i.v. cumulative dose-response study, Compound 3b maximum at 10 mg/kg): −11.6 mmHg; duration of arterial blood pressure effect ([3]; single i.v. bolus dose at 3 mg/kg, 3 hours data collection): stable from 90 to 180 minutes; drop in arterial blood pressure ([3]; single i.v. bolus dose at 3 mg/kg, time-course study (FIG. 27)): ~−6 mmHg; systolic blood pressure ([4]; dexmedetomidine induced dogs, chronic study, oral b.i.d., day 2, 7 and 14): dose dependently reduced systolic blood pressure; systolic blood pressure (healthy dogs; chronic study, oral, day 1 and 15): dose dependently reduced systolic blood pressure
CN1CCc2c(c3cc(Cl)ccc3n2CC(O)c2ccncc2)C1 (single isomer, unassigned) [4a]	81.64				
Cc1ccc2c(c1)c1c(n2CC(C)(O)c2cccnc2)CCN(C)C1 (single isomer, unassigned) [5b, 1-(1,2,3,4-tetrahydro-2,8-dimethylpyrido[4,3-b]indol-5-yl)-2-(pyridin-3-yl)propan-2-ol]	73.73	0.3748	dose-dependently reduced systolic blood pressure	dose-dependently reduced systolic blood pressure	
Cc1ccc2c(c1)c1c(n2CC(O)c2ccncc2)CCNC1 (single isomer, unassigned) [39a, 2-(8-methyl-1,2,3,4-tetrahydro-pyrido[4,3-b]indol-5-yl)-1-pyridin-4-yl-ethanol]	82.94				
CN1CCc2c(n(CC(O)c3ccncc3)c3ccc(Cl)cc23)C1 (single isomer, unassigned) [41a]				robust and long lasting reduction in systolic blood pressure	heart rate (healthy dogs; 6 mg/kg oral gavage): slight decrease or neutral effect
